Read-outs that look alike come from different tables or passages of the source.
Legend:
[1] = system: HCT116 (Colon); test: SRB assay, HCT116; type: cell-based; settings: Homo sapiens; for CC50: HCT-116, 48 h, read-out: LC50; for GI50 / IC (TGI): HCT-116, HCT116, SRB, 48 h
Description: (§1) SRB assays were performed according to standard National Cancer Institute Guidelines. Briefly, human tumor cells from different cancer panels were seeded into 96 well plates in 100 μL (plating densities ranging from 5-40,000 cells/well depending on the doubling time of individual cell lines) in serum-containing media for twenty-four hours prior to the addition of the compounds to be assayed. After 24 hours, one plate of each cell line was fixed in situ with trichloroacetic acid (TCA). The fixed slides were used to determine the cell population for each cell line at the time of drug addition (Tz). Each compound to be tested was solubilized in DMSO and the desired concentration was then added to the medium and diluted serially 1:10 to provide a total of five or ten drug concentrations plus control (in a final volume of 200 μL). The starting dose before any dilution was 100 uM for all compounds.
(§2) Following drug addition, each culture was incubated for forty-eight hours. The assay was terminated with the addition of cold TCA. The supernatant was discarded, and the plates were washed with tap water and air dried. Sulforhodamine B (SRB) solution was then added to each well. After staining, the bound stain was solubilized and the absorbance was read on an automated plate reader at a wavelength of 515 nm.
(§3) Using the absorbance measurements [time zero, (Tz), control growth, (C), and test growth in the presence of drug at the ten concentration levels (Ti)], the percentage growth was calculated at each of the drug concentrations levels. Percentage growth inhibition was calculated as:
(§4) [(Ti−Tz)/(C−Tz)]×100 for concentrations for which Ti>/=Tz
(§5) [(Ti−Tz)/Tz]×100 for concentrations for which Ti<Tz.
(§6) Three dose response parameters were calculated for each experimental agent. Growth inhibition of 50% (GI50) was calculated from [(Ti−Tz)/(C−Tz)]×100=50, which was the drug concentration resulting in a 50% reduction in the net protein increase (as measured by SRB staining) in control cells during the drug. The drug concentration resulting in total growth inhibition (TGI) was calculated from Ti=Tz. The LC50 (concentration of drug resulting in a 50% reduction in the measured protein at the end of the drug treatment as compared to that at the beginning) indicating a net loss of cells following treatment was calculated from [(Ti−Tz)/Tz]×100=−50.
(§7) Values were calculated for each of these three parameters when the level of activity was reached; however, if the effect was not reached or was exceeded, the value for that parameter was expressed as greater or less than the maximum or minimum concentration tested.
(§8) Table 4 summarizes results characterizing the effects of compound Nos. 120, 12, 61, 1, and 56 on GI50, which measures the cell growth inhibitory power of the compound, TGI, which measures cytostatic effect (TGI) and LC50, which signifies cytotoxic effect. Each of these parameters in Table 4 was calculated in a sulforhodamine B (SRB) assay, which provides a colorimetric measure of a compound's anti-cancer activity. SRB assays were performed with compounds of the invention in 22 different cell lines (shaded in light gray in Table 4), which represent nine different tumor panels (lung, melanoma, ovary, prostate, CNS, breast, pancreas colon and renal). Ouabain and digoxin were used as controls. Paclitaxel was added as a non-Na^+K^+-ATPase inhibitor control.

[2] = system: CAKJ1 (Renal); test: SRB assay, CAKJ1; type: cell-based, human; settings: 48 h; for TGI / GI50: CAKJ1, SRB; for CC50 / GI50: Homo sapiens; for CC50: read-out: LC50
Description: as §1, §2, §3, §4, §5, §6, §7, §8

[3] = system: ADRRES (Ovary); test: SRB assay, ADRRES (multidrug resistant NCI-ADR-RES); type: cell-based, human; settings: for TGI / GI50: ADRRES; for TGI / GI50 / GI50 in NCI-ADR-RES cells compared to non-resistant MCF-7 cells / anti-tumor action in multidrug resistant cell line NCI-ADR-RES: SRB; for TGI / CC50 / GI50: 48 h; for CC50 / GI50: Homo sapiens, NCI/ADR-RES; for CC50: read-out: LC50; for anti-tumor action in multidrug resistant cell line NCI-ADR-RES: cells express high levels of MDR1 and P-glycoprotein
Description: NCI-ADR-RES cells have been classified as ovarian cancer cells by the National Cancer Institute.
as §1, §2, §3, §4, §5, §6, §7, §8
Table 4 also presents results with Compound Nos. 120, 12, 61, 1, and 56 in a well characterized drug resistant cell line, NCI-ADR-RES, that expresses high levels of MDR1 and P-glycoprotein.

[4] = system: SF268 (CNS); test: SRB assay, SF268; type: cell-based; settings: Homo sapiens; for CC50: SF-268, 48 h, read-out: LC50; for GI50 / IC (TGI): SF-268, SF268, SRB, 48 h; for GI50: read-out: GI50; for IC (TGI): read-out: TGI
Description: as §1, §2, §3, §4, §5, §6, §7, §8

[5] = system: A549 (Lung); test: SRB assay, A549; type: cell-based, human; settings: for TGI / GI50: A549, SRB, 48 h; for CC50 / GI50: Homo sapiens; for CC50: A549, 48 h, read-out: LC50
Description: as §1, §2, §3, §4, §5, §6, §7, §8

[6] = system: PCJ (Prostate); test: SRB assay, PCJ; type: cell-based; settings: Homo sapiens, 48 h; for CC50: read-out: LC50; for GI50 / IC (TGI): PCJ, SRB
Description: as §1, §2, §3, §4, §5, §6, §7, §8

[7] = system: SKMEL28 (Melanoma); test: SRB assay, SKMEL28; type: cell-based, human; settings: for CC50 / GI50: Homo sapiens; for CC50: SK-MEL-28, 48 h, read-out: LC50; for GI50: SK-MEL-28; for GI50 / TGI: SKMEL28, SRB, 48 h
Description: as §1, §2, §3, §4, §5, §6, §7, §8

[8] = system: DU145 (Prostate); test: SRB assay, DU145; type: cell-based, human; settings: for TGI / GI50: DU145, SRB, 48 h; for CC50 / GI50: Homo sapiens; for CC50: DU-145, 48 h, read-out: LC50; for GI50: DU-145
Description: as §1, §2, §3, §4, §5, §6, §7, §8

[9] = system: MB435 (Melanoma); test: SRB assay, MB435; type: cell-based, human; settings: 48 h; for CC50 / GI50: Homo sapiens; for CC50: read-out: LC50; for GI50 / TGI: MB435, SRB
Description: as §1, §2, §3, §4, §5, §6, §7, §8

[10] = system: OVCAR5 (Ovary); test: SRB assay, OVCAR5; type: cell-based, human; settings: for CC50 / GI50: Homo sapiens; for CC50: OVCAR-5, 48 h, read-out: LC50; for GI50: OVCAR-5; for GI50 / TGI: OVCAR5, SRB, 48 h
Description: as §1, §2, §3, §4, §5, §6, §7, §8

[11] = system: Na+/K+-ATPase (Adenosine 5′-Triphosphatase isolated from porcine cerebral cortex); test: Na+/K+-ATPase inhibitory activity, colorimetric Adenosine 5'-Triphosphatase Enzymatic Assay; type: biochemical
Description: The inhibitory effect of a compound of the invention on ATPase activity was assessed in vitro using the colorimetric Adenosine 5′-Triphosphatase Enzymatic Assay of Sigma (St. Louis, Mo.) according to the manufacturer's instructions. This assay utilizes Adenosine 5′-Triphosphatase isolated from porcine cerebral cortex. Each reaction was performed in a final volume of 250 μl using 0.5 units/ml enzyme in the presence of different inhibitors. […] IC50 values were determined using the Origin® program software (OriginLab, Northampton, Mass.).

[12] = system: ERVK (Lung); test: SRB assay, ERVK; type: cell-based, human; settings: 48 h; for TGI / GI50: ERVK, SRB; for CC50 / GI50: Homo sapiens; for CC50: read-out: LC50
Description: as §1, §2, §3, §4, §5, §6, §7, §8

[13] = system: OVCAR3 (Ovary); test: SRB assay, OVCAR3; type: cell-based, human; settings: for CC50 / GI50: Homo sapiens; for CC50: OVCAR-3, 48 h, read-out: LC50; for GI50: OVCAR-3; for GI50 / TGI: OVCAR3, SRB, 48 h
Description: as §1, §2, §3, §4, §5, §6, §7, §8

Structure (SMILES)	CC50 [1] [µM]	GI50 [1] [µM]	IC (TGI) [1] [µM]	TGI [2] [µM]	CC50 [2] [µM]	GI50 [2] [µM]	TGI [3] [µM]	CC50 [3] [µM]	GI50 [3] [µM]	CC50 [4] [µM]	GI50 [4] [µM]	IC (TGI) [4] [µM]	TGI [5] [µM]	CC50 [5] [µM]	GI50 [5] [µM]	CC50 [6] [µM]	GI50 [6] [µM]	IC (TGI) [6] [µM]	CC50 [7] [µM]	GI50 [7] [µM]	other results
CC(=O)O[C@H]1C(=O)[C@@]2(C)[C@H]([C@H](OC(=O)c3ccccc3)[C@]3(O)C[C@H](OC(=O)[C@H](O)[C@@H](NC(=O)c4ccccc4)c4ccccc4)C(C)=C1C3(C)C)[C@]1(OC(C)=O)CO[C@@H]1C[C@@H]2O [Paclitaxel, reference compound]	> 10	< 0.1	2.24	4.969	11.6	< 0.001	5.8034	10.6	1.05	> 10	< 0.1	1.93	6.1384	15.3	< 0.001	> 10	< 0.1	> 10	> 10	2.3	TGI [7]: >10 µM; TGI [8]: 0.0086 µM; CC50 [8]: 0.143 µM; GI50 [8]: < 0.001 µM
C[C@]12CCC(=NOCCN)C=C1CCC1C2CC[C@]2(C)C(=O)CCC12 (stereo partly drawn) [Compound 12, (10R,13S)-3-(2-aminoethoxyimino)-10,13-dimethyl-2,3,7,8,9,10,11,12,13,14,15,16-dodecahydro-1H-cyclopenta[a]phenanthren-17(6H)-one]	10.7	4.06	7.38	6.56	9.44	3.69	6.58	10.1	3.08	8.51	2.84	5.67	6.90	9.73	4.08	8.52	3.54	6.03	85.6	8.39	GI50 in NCI-ADR-RES cells compared to non-resistant MCF-7 cells [3]: the same GI50 value; anti-tumor action in multidrug resistant cell line NCI-ADR-RES [3]: potent anti-tumor action; CC50 [9]: 75.8 µM; GI50 [9]: 5.45 µM; TGI [9]: 10.24 µM; CC50 [10]: 63.6 µM; GI50 [10]: 5.3 µM; TGI [10]: 9.02 µM; Na+K+ ATPase inhibitory activity (in words) [11]: strong Na+K+ ATPase inhibitory activities; IC50 ([11]; read-out: Na+K+ ATPase inhibitory activity IC50): 0.375 µM; TGI [12]: 5.13 µM; CC50 [12]: 8.8 µM; GI50 [12]: 1.45 µM; TGI [7]: 40.16 µM; TGI [8]: 5.75 µM; CC50 [8]: 8.45 µM; GI50 [8]: 3.04 µM; CC50 [13]: 88.8 µM; GI50 [13]: 3.01 µM; TGI [13]: 28.79 µM
C[C@]12CCC(=NOCCN)C=C1CCC1C2CC[C@@]2(C)C1CC[C@@H]2O (stereo partly drawn) [Compound 120, (1S,9aR,11aS)-17-hydroxy-10,13-dimethyl-6,7,8,9,10,11,12,13,14,15,16,17-dodecahydro-1H-cyclopenta[a]phenanthren-3(2H)-one O-2-aminoethyl oxime]	39.2	4.28	16.1	9.90	61	4.91	42.91	81.9	8.73	20.4	4.65	9.08	62.82	≥ 179	6.91	29.4	4.57	14.2	79.6	19.9	GI50 in NCI-ADR-RES cells compared to non-resistant MCF-7 cells [3]: the same GI50 value; anti-tumor action in multidrug resistant cell line NCI-ADR-RES [3]: potent anti-tumor action; CC50 [9]: 98.9 µM; GI50 [9]: 7.29 µM; TGI [9]: 38.95 µM; CC50 [10]: 87.1 µM; GI50 [10]: 20.5 µM; TGI [10]: 53.80 µM; Na+K+ ATPase inhibitory activity (in words) [11]: strong Na+K+ ATPase inhibitory activities; IC50 ([11]; 0.5 units/ml enzyme, five concentrations 10^−5 to 10^−9M, read-out: Na+ K+ Inhibitory Activity (IC50)): 0.897 µM; TGI [12]: 38.23 µM; CC50 [12]: ≥ 105 µM; GI50 [12]: 4.57 µM; TGI [7]: 49.74 µM; TGI [8]: 13.54 µM; CC50 [8]: 68.5 µM; GI50 [8]: 5.87 µM; CC50 [13]: > 100 µM; GI50 [13]: 6.5 µM; TGI [13]: 41.51 µM

From patent publication US20120238488A1, “COMPOUNDS AND METHODS FOR TREATING NEOPLASIA” (priority 2009, published 2012)
